What was measured:
P338 = system: P338; parameters: method as in PMID 14695204, PMID 26042639; conditions: cited from earlier work
DU-145 = system: DU-145; parameters: method as in PMID 14695204, PMID 26042639; conditions: cited from earlier work
NCI-H460 = system: NCI-H460; parameters: method as in PMID 14695204, PMID 26042639; conditions: cited from earlier work
MCF-7 = system: MCF-7; parameters: method as in PMID 14695204, PMID 26042639; conditions: cited from earlier work
PC-3 cells [1] = assay: Cell cycle assay, PI single staining, flow cytometry; format: cell-based, human; conditions: for Percentage of Cell Cycles (%) G1 / Percentage of Cell Cycles (%) S / Percentage of Cell Cycles (%) G2/M: 48 h; for Percentage of Cell Cycles (%) G2/M: control 15.69%
Protocol: To further clarify the effects of A-ring fused steroidal pyrazines on cell growth, the cell cycle distribution of PC-3 cells was investigated through treatment with compound 12n at concentration gradients for 48 h (Figure 5 and Table 5).
The cell cycle was examined by PI single staining (Beyotime, Shanghai, China), as previously described. […] The samples were analyzed using flow cytometry for DNA content (CytoFLEX, California, United States).

MCF-7 (breast carcinoma) = assay: CCK-8 antiproliferative assay, MCF-7; format: cell-based; conditions: Homo sapiens, MCF7, 48 h, CCK8, mean of three independent experiments, NA = no activity, read-out: Inhibitory Ratio (Mean% ± SD%) MCF-7
Protocol: (§1) All the thirty-six target derivatives (5a–5f, 10a–10o, and 12a–12o) were screened for antiproliferative activities against three human cancer cell lines (MCF-7, PC-3, and HepG2) and cytotoxicity on a normal human cell (THLE-2) at the concentration of 20 μM by using the CCK8 assay.
(§2) Thirty-six novel steroidal A-ring fused pyrazine hybrids were evaluated by Cell Counting Kit-8 (CCK-8) assays, to evaluate their in vitro antiproliferative activities on three human cancer cell lines and one normal cell line: MCF-7 (breast carcinoma), PC-3 (prostate carcinoma), HepG2 (liver hepatocellular carcinoma), and THLE-2 ([…]), with 5-fluorouracil as the positive control.
(§3) Cells (3 × 10^3 cells per well) seeded into 96-well plates (Costar, Shanghai, China) were incubated with Ham’s F-12K containing various concentrations of steroidal pyrazines (5a–5f, 10a–10o, and 12a–12o) for 48 h at 37 °C and 5% COThen, 10 μL of CCK-8 reagent (Beyotime, Shanghai, China) dissolved in PBS (Phosphate buffered saline) was added per well, and continuously incubated at 37 °C for 1 h. Finally, the absorbance of samples taken from each well was measured on a microplate reader at 450 nm. The antiproliferative activities were expressed as inhibitory activity and IC50 values calculated using GraphPad Software 5.0 (GraphPad Software, San Diego, CA, USA), which were the mean values of three independent tests and are shown in Table 1 and Table 2, respectively. The formula used for cell inhibitory rates was (1 - sample absorption/vehicle absorption) × 100%.

PC-3 cells [2] = assay: Cell apoptosis assay, Annexin V-FITC/PI dual staining, flow cytometry; format: cell-based, human; conditions: for Percentage of Cell Apoptosis (%) Normal Living Cell: 48 h (Q1-LL); for Percentage of Cell Apoptosis (%) Early Apoptosis: 48 h (Q1-LR); for Percentage of Cell Apoptosis (%) Necrosis: 48 h (Q1-UL); for Percentage of Cell Apoptosis (%) Late Apoptosis: 48 h (Q1-UR); for apoptosis ratio (early and late apoptotic ratios): 48 h, blank control 5.77%
Protocol: To clarify the effect of steroidal pyrazines on the induction of apoptosis in PC-3 cells, a flow cytometry assay with Annexin-V-FITC/PI double staining was implemented.
The cell apoptosis was evaluated with Annexin V-FITC/PI dual staining (Beyotime, Shanghai, China), as previously described. PC-3 cells (1 × 10^6 cells per well) seeded into 6-well plates (Costar, Shanghai, China) were incubated with Ham’s F-12K containing various concentrations (0.2, 1.0, and 5.0 μM) of compound 12n for 48 h. The biological samples were analyzed using flow cytometry (CytoFLEX, CA, USA).

[3] = system: THLE-2 (normal human cells); assay: CCK-8 cytotoxicity on normal cells, THLE-2; format: cell-based
Protocol: as §1, §2, §3

[4] = system: HepG2 (liver hepatocellular carcinoma); assay: CCK-8 antiproliferative assay, HepG2; format: cell-based; conditions: Homo sapiens, 48 h, CCK8, mean of three independent experiments, NA = no activity, read-out: Inhibitory Ratio (Mean% ± SD%) HepG2
Protocol: as §1, §2, §3

[5] = system: PC-3 (prostate carcinoma); assay: CCK-8 antiproliferative assay, PC-3; format: cell-based, human
Protocol: as §1, §2, §3

PC-3 cells [6] = assay: Giemsa staining for morphological features of apoptosis; format: cell-based, human; conditions: 1.0 and 4.0 μM, 48 h
Protocol: After being treated with 12n at different concentrations (1.0 and 4.0 μM), the cells were stained with Giemsa stain. […] Other morphological changes, such as the loss of volume and deformation of a regular appearance, were also found.
Giemsa stain was used to assess the morphological changes of PC-3 cells, according to the standard Giemsa procedure established by the supplier (Solarbio, Beijng, China). Briefly, PC-3 cells were plated at 3 × 10^3 cells/well into a 96-well plates. PC-3 cells after treatment with 12n for 48 h were fixed with methanol (75%) for 10 min at room temperature. Then, the cells were stained with Giemsa (diluted with phosphate buffer), observed, and photographed under the microscope at 200 × (Olympus Corporation, Tokyo, Japan ).

Ritterazine B
ED50 (nM) for P338 (P338): 0.17 nM

C[C@@H]1[C@]2(O[C@H]3C=C4[C@@H]5CC[C@H]6Cc7nc8c(nc7C[C@]6(C)[C@H]5C[C@@H](O)[C@]4(C)[C@]31O)C[C@@H]1CC[C@H]3C4=CC[C@@H]5[C@H](C)[C@@]6(OC[C@]45C(=O)C[C@@H]3[C@@]1(C)C8)OC(C)(C)C[C@H]6O)O[C@](C)(CO)C[C@H]2O [Cephalostatin 1]
GI50 (DU-145): 0.11 nM | GI50 (NCI-H460): 0.044 nM | GI50 (MCF-7): 0.099 nM

CC(O)C1CCC2C3CC=C4C(C)(C)c5nc(C(=O)NCCc6ccccc6)cnc5CC4(C)C3CCC12C (stereo not shown) [Compound 12n]
Percentage of Cell Cycles (%) G1 (PC-3 cells [1]; PC-3, 0.2 μM): 46.65% | Percentage of Cell Cycles (%) S (PC-3 cells [1]; PC-3, 0.2 μM): 37.26% | Percentage of Cell Cycles (%) G2/M (PC-3 cells [1]; PC-3, 0.2 μM): 16.09% | Percentage of Cell Cycles (%) G1 (PC-3 cells [1]; PC-3, 1.0 μM): 23.03% | Percentage of Cell Cycles (%) S (PC-3 cells [1]; PC-3, 1.0 μM): 30.78% | Percentage of Cell Cycles (%) G2/M (PC-3 cells [1]; PC-3, 1.0 μM): 46.19% | percentage of cells in the G2/M phase (PC-3 cells [1]; PC-3, 5.0 μM): 44.27% | Percentage of Cell Cycles (%) G1 (PC-3 cells [1]; PC-3, 5.0 μM): 55.73% | Percentage of Cell Cycles (%) S (PC-3 cells [1]; PC-3, 5.0 μM): 0.00% | Percentage of Cell Cycles (%) G2/M (PC-3 cells [1]; PC-3, 5.0 μM): 44.27% | inhibition at 20 µM (MCF-7 (breast carcinoma)): 40.8 ± 1.72% | Percentage of Cell Apoptosis (%) Normal Living Cell (PC-3 cells [2]; PC-3, 0.2 μM): 89.20% | Percentage of Cell Apoptosis (%) Early Apoptosis (PC-3 cells [2]; PC-3, 0.2 μM): 0.76% | Percentage of Cell Apoptosis (%) Necrosis (PC-3 cells [2]; PC-3, 0.2 μM): 2.15% | Percentage of Cell Apoptosis (%) Late Apoptosis (PC-3 cells [2]; PC-3, 0.2 μM): 7.90% | apoptosis ratio (early and late apoptotic ratios) (PC-3 cells [2]; PC-3, 0.2 μM): 8.66% | Percentage of Cell Apoptosis (%) Normal Living Cell (PC-3 cells [2]; PC-3, 1.0 μM): 73.17% | Percentage of Cell Apoptosis (%) Early Apoptosis (PC-3 cells [2]; PC-3, 1.0 μM): 4.55% | Percentage of Cell Apoptosis (%) Necrosis (PC-3 cells [2]; PC-3, 1.0 μM): 3.21% | Percentage of Cell Apoptosis (%) Late Apoptosis (PC-3 cells [2]; PC-3, 1.0 μM): 19.07% | apoptosis ratio (early and late apoptotic ratios) (PC-3 cells [2]; PC-3, 1.0 μM): 23.62% | Percentage of Cell Apoptosis (%) Normal Living Cell (PC-3 cells [2]; PC-3, 5.0 μM): 54.13% | Percentage of Cell Apoptosis (%) Early Apoptosis (PC-3 cells [2]; PC-3, 5.0 μM): 3.64% | Percentage of Cell Apoptosis (%) Necrosis (PC-3 cells [2]; PC-3, 5.0 μM): 6.30% | Percentage of Cell Apoptosis (%) Late Apoptosis (PC-3 cells [2]; PC-3, 5.0 μM): 35.93% | apoptosis ratio (early and late apoptotic ratios) (PC-3 cells [2]; PC-3, 5.0 μM): 39.57% | inhibition at 20 µM ([3]; 20 μM, 48 h, CCK8, NA = no activity, read-out: Inhibitory Ratio (Mean% ± SD%) THLE-2): 19.3 ± 1.81% | IC50 ([3]; CCK-8, 48 h): 26700 nM | inhibition at 20 µM [4]: 55.4 ± 1% | inhibition at 20 µM ([5]; Homo sapiens, 48 h, 20 μM, 48 h, CCK8, mean of three independent experiments, NA = no activity, read-out: Inhibitory Ratio (Mean% ± SD%) PC-3): > 60% | IC50 ([5]; Homo sapiens, CCK-8, 48 h, triplicate): 930 ± 20 nM | SI: Selectivity index = (IC50 of THLE-2)/(IC50 of PC-3) ([5]; THLE-2 vs PC-3): 28.71 | Morphological changes of PC-3 cells (Giemsa stain) (PC-3 cells [6]): could cause the morphological change of PC-3 cells in a dose-dependent manner

Source: publication PMC7084598, “Design, Synthesis, and Biological Evaluation of Two Series of Novel A-Ring Fused Steroidal Pyrazines as Potential Anticancer Agents” (International Journal of Molecular Sciences, 2020)
